The results in this text go back to ChEMBL document CHEMBL1144507, “Synthesis and antifungal activity of (Z)-5-arylidenerhodanines” (2007).

For test [1], the system named is Trichophyton benhamiae. The test can be described thus: Antifungal activity against Trichophyton mentagrophytes C539 after 48 hrs. The format is functional, Arthroderma benhamiae.
For test [2], the system named is Trichophyton benhamiae. As to the kind of experiment: Antifungal activity against Trichophyton mentagrophytes C943 after 48 hrs. In kind it is functional, Arthroderma benhamiae.
The subject of test [3] is Trichophyton benhamiae. As to the kind of experiment: Antifungal activity against Trichophyton mentagrophytes C738 after 48 hrs. In kind it is functional, Arthroderma benhamiae.
In test [4] the test system is Trichophyton rubrum. As to the kind of experiment: Antifungal activity against Trichophyton rubrum C140 after 48 hrs. In kind it is functional.
For test [5], the system named is Trichophyton rubrum. The test can be described thus: Antifungal activity against Trichophyton rubrum C110 after 48 hrs. In kind it is functional.
Test [6] has as its system Trichophyton rubrum. The test can be described thus: Antifungal activity against Trichophyton rubrum C136 after 48 hrs. In kind it is functional.
Test [7] has as its system Trichophyton benhamiae. As to the kind of experiment: Antifungal activity against Trichophyton mentagrophytes C108 after 48 hrs. The format is functional, Arthroderma benhamiae.
The test system of test [8] is Trichophyton rubrum. The test can be described thus: Antifungal activity against Trichophyton rubrum C137 after 48 hrs. The format is functional.
In test [9] the test system is Trichophyton rubrum. The test can be described thus: Antifungal activity against Trichophyton rubrum C135 after 48 hrs. In kind it is functional.
In test [10] the test system is Trichophyton benhamiae. The test can be described thus: Antifungal activity against Trichophyton mentagrophytes C364 after 48 hrs. The format is functional, Arthroderma benhamiae.
In test [11] the test system is Trichophyton rubrum. As to the kind of experiment: Antifungal activity against Trichophyton rubrum C139 after 48 hrs. In kind it is functional.

A word on the MIC: it is the smallest concentration in the dilution series that meets the test's criterion for growth inhibition. High values mean weaker potency, low ones greater potency.

Values after ≈ are worked out from the molar mass of the structure shown.

With `CN(C/C=C/C#CC(C)(C)C)Cc1cccc2ccccc12` [TERBINAFINE], the minimum inhibitory concentration (MIC) amounted to 6 ng/mL (≈ 0.0206 µM) in [1]; 6 ng/mL (≈ 0.0206 µM) in [2]; 6 ng/mL (≈ 0.0206 µM) in test [3]; 3 ng/mL (≈ 0.0103 µM) in test [4]; 6 ng/mL (≈ 0.0206 µM) in [5]; 6 ng/mL (≈ 0.0206 µM) in test [6]. Further, the MIC stood at 6 ng/mL (≈ 0.0206 µM) in [7]; 6 ng/mL (≈ 0.0206 µM) in test [8]; 6 ng/mL (≈ 0.0206 µM) in [9]; 6 ng/mL (≈ 0.0206 µM) in test [10]; 12 ng/mL (≈ 0.0412 µM) in test [11].
